One test deals with T1, hP2X2/3 (Homo sapiens, UniProt P56373+Q9UBL9).
T1 construct: host or cells: TRex293 (hP2X2/3-TRex293), doxycycline-induced
T1 sequence (P56373 1-397): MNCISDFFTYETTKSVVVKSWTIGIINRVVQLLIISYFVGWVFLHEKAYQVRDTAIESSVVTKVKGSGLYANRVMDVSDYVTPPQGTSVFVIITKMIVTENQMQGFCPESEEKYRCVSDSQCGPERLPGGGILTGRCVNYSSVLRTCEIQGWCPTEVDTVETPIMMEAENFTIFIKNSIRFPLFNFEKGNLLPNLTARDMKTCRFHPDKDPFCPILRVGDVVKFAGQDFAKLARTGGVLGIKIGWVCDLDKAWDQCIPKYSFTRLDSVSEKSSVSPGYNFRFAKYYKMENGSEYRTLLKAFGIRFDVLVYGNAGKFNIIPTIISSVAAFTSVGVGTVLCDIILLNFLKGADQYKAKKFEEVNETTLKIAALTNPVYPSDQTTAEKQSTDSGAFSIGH
T1 sequence (Q9UBL9 1-471): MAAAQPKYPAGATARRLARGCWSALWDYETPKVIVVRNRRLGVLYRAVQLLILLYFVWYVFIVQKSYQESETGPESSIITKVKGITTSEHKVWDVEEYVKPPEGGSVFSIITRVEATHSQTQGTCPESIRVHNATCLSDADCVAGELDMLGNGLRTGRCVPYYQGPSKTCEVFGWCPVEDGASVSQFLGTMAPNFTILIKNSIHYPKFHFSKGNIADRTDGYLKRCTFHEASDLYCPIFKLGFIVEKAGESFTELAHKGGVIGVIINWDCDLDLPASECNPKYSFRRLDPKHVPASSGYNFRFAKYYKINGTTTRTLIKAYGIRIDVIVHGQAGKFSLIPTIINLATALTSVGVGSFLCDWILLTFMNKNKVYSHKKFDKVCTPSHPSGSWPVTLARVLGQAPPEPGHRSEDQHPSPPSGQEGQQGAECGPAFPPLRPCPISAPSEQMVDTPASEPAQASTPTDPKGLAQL
The experiment in a line: FLIPR intracellular calcium assay, hP2X2/3. It counts as cell-based. As to conditions: human P2X2/3-TRex293 cells, agonist at EC75. In outline:
(§1)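 HEK (hP2X3) or tetracycline-inducible TRex293 (hP2X2/3) cells loaded with Calcium 4 dye, then given 11-point half-log compound dilutions for 15 min at room temperature in HBSS/HEPES, pH 7.4, with 1.8 mM CaCl2. Cells challenged with agonist at EC75; IC50 derived from fluorescence inhibition versus no-compound wells.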

In another test the test system is Male Sprague Dawley rats. The experiment in a line: In vivo thermal hyperalgesia (Hargreaves test), CFA-injected rat. As to conditions: at 1 hour, p<0.01. The procedure: Male Sprague Dawley rats of young adult age group and body weight range of 180-200 g were included in the study. Animals were housed under a 12 h light/dark cycle with food and water ad libitum. The animals underwent acclimatization with the observation chambers of the Hargreaves' apparatus for two days, twice daily for 45-60 min each time prior to initiation of study. Animals were also habituated to the apparatus for 15-30 min before each testing. Thermal hyperalgesia was assessed using the rat plantar test (Ugo Basile, Italy) following a modified method of Hargreaves (1988), “A new and sensitive method for measuring thermal nociception in cutaneous hyperalgesia”, Pain 32: 77-88, the entire disclosure of which is herein incorporated by reference. […]
Following basal readout of PWL values to the thermal stimulus (PWL measurements described previously), 50 μL of complete Freund's Adjuvant (CFA—1 mg/mL suspension—Sigma, USA, Cat #F5881) was injected subcutaneously into the plantar surface of the right hind (ipsilateral) paw of animals under light isoflurane anesthesia. […]
Next day (day 1) after 20-22 h of CFA injection, PWL of animals were recorded. Mean of three readings are taken as PWL recording of ipsilateral paw of each animal for pre and post CFA basal readout. […]

Another test has as its target T2, hP2X3 (Homo sapiens, UniProt P56373).
T2 construct: host or cells: HEK (hP2X3-HEK)
T2 sequence (P56373 1-397): T1 sequence (P56373 1-397)
The experiment in a line: FLIPR intracellular calcium assay, hP2X3. It counts as cell-based. The note with it: human P2X3-HEK cells, agonist at EC75. The method, boiled down: as §1

As to `CCC(C)n1ncc2nc(N3CCN(C(N)=O)CC3)nc(N[C@@H](c3cnc4ccccc4c3)C3CC3)c21` (stereo partly drawn) [Example 10, 4-{1-sec-Butyl-7-[((R)-cyclopropyl-quinolin-3-yl-methyl)-amino]-1H-pyrazolo[4,3-d]pyrimidin-5-yl}-piperazine-1-carboxylic Acid Amide], the IC50 on hP2X2/3 and on hP2X3 was 1 to 100 nM in each case. The “reversal to pre-treatment PWL value” in the test with Male Sprague Dawley rats (30 mg/kg po) was 32%.

In the case of `CC[C@H](C)n1ncc2nc(N3CCN(C(C)=O)CC3)nc(N[C@H](C)c3cnc4ccccc4c3)c21` [Example 19], the IC50 was in the range of 100 to 1000 nM at hP2X2/3 and 1 to 100 nM at hP2X3. Also, the “reversal to pre-treatment PWL value” in the test on Male Sprague Dawley rats (60 mg/kg po) amounted to 36%.

As a reminder, the IC50 is the concentration that inhibits the measured activity by half.

The values above are taken from patent US11339169B2, “P2X3 and/or P2X2/3 compounds and methods” (Asana BioSciences, LLC, priority 2016, dated 2022).
